Source: article PMC12264794, “Homoleptic complexes of titanium(IV) fused with O^N^O Schiff base derivatives: design, BSA–DNA interaction, molecular docking, DFT and cytotoxicity” (RSC Advances, 2025)

Legend:
HEK-293 cells = assay: MTT cytotoxicity assay, HEK-293; type: cell-based, human; details: 48 h of drug exposure
Method: The in vitro cytotoxicity of the Ti(IV) complexes under investigation was investigated using MTT, a micro-titration colorimetric method. The in vitro cytotoxicity test of the Ti(IV) complexes was evaluated against the cervical cancer cell line (HeLa), human breast cancer cell line (MCF-7) and human kidney normal cell line (HEK-293).[65,66]
In the cytotoxicity assay, tetrazolium salt 3-[4,5-dimethylthiazol-2-yl]-2,5diphenyl tetrazolium bromide (MTT) was utilized to assess cell viability. […] A Bio-Rad xMARK™ multi-well plate reader was used to measure the absorbance of each well at 570 nm. Using eqn (2), the percentage viability, which represents the relative viability of the treated cells in comparison to the control cells, was calculated, and the IC50 values and standard deviation of the substances under investigation were calculated in triplicate.2 [drawing 2]
An MTT assay was used to examine the cytotoxic effectiveness of the produced Ti(IV) complexes. After 48 hours of incubation, the cytotoxicity of Ti-1-IS to Ti-6-IBr was evaluated against human cancer cell lines, such as breast carcinoma (MCF7) and cervical cancer (HeLa), as well as the non-cancerous human embryonic kidney (HEK) cell line, by using the widely used therapeutic drug, cis-platin, as a positive control by following the standard protocol.

HeLa cells = assay: ROS generation, DCFH-DA staining; type: cell-based, human; details: IC50 doses, 48 hours
Method: HeLa cells of density 5 × 10^4 were seeded in six-well plates with high glucose DMEM and kept overnight until cell confluency was attained. […] The cells were treated with 10 mM 20,70-dichlorodihydrofluorescein diacetate (DCHF-DA) dye after washing twice with PBS buffer. Later, cells were incubated at 37 °C in complete darkness for 30 minutes. Subsequently, an inverted fluorescent microscope (Olympus Confocal Laser Scanning Microscope Fluoview Fv3000) was used to assess the ROS level of the cells. […] The amount of intracellular ROS was expressed as the average fluorescence intensity.[71,72]
ROS have been proposed as potential mediators of oxidative stress-induced apoptosis caused by titanium(IV) complexes, and the electrophoresis experiment mentioned above supports this theory.

CT-DNA = assay: UV-vis absorption titration with CT-DNA; type: binding, calf
Method: The UV-vis titration technique was employed to conduct DNA binding investigations of the newly synthesized Ti(IV)complexes. The binding interactions between Ti(IV) complexes and CT-DNA 5 mM (5 × 10^−5 M) produced in PBS buffer were assessed in a 5 mM phosphate buffer (PBS) with a pH of 7.4. The ratio of UV absorbance of CT-DNA at each position, 260 and 280 nm, was confirmed. The concentration of each nucleotide was calculated using the molar absorption coefficient (6600 m^−1) of CT-DNA at 260 nm. Additional dilutions were made in 5 mM PBS buffer solution, and stock solutions of metal complexes were prepared in DMSO. DNA binding experiments were performed with a fixed concentration of the complex (20 μM) and increasing concentrations of CT-DNA (0–80 μM) in sample solutions to detect the CT-DNA absorbance peak.[41,42]
UV-vis spectra typically show a shift in wavelength and a change in absorption spectra as a result of the interaction of the Ti(IV) complexes with DNA. […] Then, using eqn (4), the binding characteristics for the aforementioned complexes, including binding constant (Kb) and binding sites, were determined.4 [drawing 4] where εa, εf, and εb represent the apparent extinction coefficient of the complex, the extinction coefficient of the complex in its free form and the extinction coefficient of the complex when completely bound to DNA.

Row | SMILES | IC50 (HEK-293 cells) | ROS production compared to the control (HeLa cells) | Binding constant with DNA (CT-DNA)
1 | [O-]C(=NN=Cc1c([O-])ccc2ccccc12)c1ccncc1.[O-]C(=NN=Cc1c([O-])ccc2ccccc12)c1ccncc1.[Ti+4] [Ti-2-IN] | > 250 µM |  | 
2 | COc1cccc(C=NN=C([O-])c2ccncc2)c1[O-].COc1cccc(C=NN=C([O-])c2ccncc2)c1[O-].[Ti+4] [Ti-3-IO] |  | increased fluorescence | 
3 | [O-]C(=NN=Cc1cc(F)ccc1[O-])c1ccncc1.[O-]C(=NN=Cc1cc(F)ccc1[O-])c1ccncc1.[Ti+4] [Ti-4-IF] |  |  | 297000 M⁻¹
4 | [O-]C(=NN=Cc1cc(Cl)ccc1[O-])c1ccncc1.[O-]C(=NN=Cc1cc(Cl)ccc1[O-])c1ccncc1.[Ti+4] [Ti-5-ICl] | > 250 µM | increased fluorescence | 
